Consider 2 compounds from patent publication US10059715B2, “Acid addition salt of ibrutinib” (ratiopharm GmbH, priority 2014, dated 2018).

In brackets after ≈: the same amount, converted by molar mass. Counter-ions that a name gives are not always drawn.

The solubility is the concentration that dissolves in the medium under given conditions.

The conditions of series [1]: at about pH 8; cited from earlier work.
The nature of series [2]: Comparison of solubilities at pH values relevant for the gastrointestinal tract.
Series [3] in a line: physchem. The note with it: 37 °C, thermodynamic from solid.
[4] abbreviates: 20 mMol NaAc solution, pH 4.5, aqueous buffer.

On to `C=CC(=O)N1CCC[C@@H](n2nc(-c3ccc(Oc4ccccc4)cc3)c3c(N)ncnc32)C1` [base, 1-[(3R)-3[4-Amino-3-(4-phenoxyphenyl)-1H-pyrazolo[3,4-d]pyrimidin-1-yl]piperidin-1-yl]prop-2-en-1one], for which the observed aqueous solubility result in series [1] is reported as “about 0.013 mg/ml”. The solubility in series [2] (pH 1.2 (0.1M HCl), 15 min, listed as ibrutinib base (form A)) came to 2070 µg/mL (≈ 4700 µM); in series [2] (pH 1.2 (0.1M HCl), 1 h), 2640 µg/mL (≈ 5990 µM); in series [2] (pH 1.2 (0.1M HCl), 24 h) it was 2640 µg/mL (≈ 5990 µM); in series [2] (pH 4.5 (20 mMol NaAc), 1 h, 37° C.), 10 µg/mL (≈ 22.7 µM); in series [2] (pH 4.5 (20 mMol NaAc), 24 h, 37° C.), 10 µg/mL (≈ 22.7 µM); in series [2] (pH 6.8 (50 mMol KH2PO4), 1 h, 37° C.), 10 µg/mL (≈ 22.7 µM). In addition, the solubility in series [2] (pH 6.8 (50 mMol KH2PO4), 24 h, 37° C.) is 10 µg/mL (≈ 22.7 µM). The “solubility (in words)” value in series [2] (pH 4.5, time not stated) is “substantially insoluble”; in series [2] (pH 6.8, time not stated) it was “substantially insoluble”. The solubility at 15 min is 10 µg/mL (≈ 22.7 µM) in series [3] (setting [4]) and 10 µg/mL (≈ 22.7 µM) in series [3] (50 mMol KH2PO4 solution, pH 6.8, aqueous buffer).
Take `C=CC(=O)N1CCC[C@@H](n2nc(-c3ccc(Oc4ccccc4)cc3)c3c(N)ncnc32)C1` [HCl, ibrutinib hydrochloride]: the solubility amounted to 7370 µg/mL in series [2] (pH 1.2 (0.1M HCl), 15 min, listed as crystalline ibrutinib hydrochloride, hydrochloride); 7720 µg/mL in series [2] (pH 1.2 (0.1M HCl), 1 h, hydrochloride); 7380 µg/mL in series [2] (pH 1.2 (0.1M HCl), 24 h, hydrochloride); 10 µg/mL in series [2] (pH 4.5 (20 mMol NaAc), 15 min); 460 µg/mL in series [2] (pH 4.5 (20 mMol NaAc), 24 h, 37° C., hydrochloride); 10 µg/mL in series [2] (pH 6.8 (50 mMol KH2PO4), 15 min). Also, the solubility in series [2] (pH 6.8 (50 mMol KH2PO4), 1 h, 37° C., hydrochloride) came to 50 µg/mL; in series [2] (pH 6.8 (50 mMol KH2PO4), 24 h, 37° C., hydrochloride), 410 µg/mL. Moreover, in series [3] (setting [4]), the solubility at 1 h is 20 µg/mL.
